Laboratory results: patent US12655116B2, “Substituted isophthalic acid diamides” (Bayer Aktiengesellschaft, priority 2020, dated 2026)

Columns and labels:
[1] = tested on: PHBPU; experiment: Pre-emergence herbicidal action against PHBPU; type: in vivo, Pharbitis purpurea; details: Ipomoea purpurea, 504 h; for pest or weed control at 20 g/ha: dosage 20 g/ha; for pest or weed control at 80 g/ha: dosage 80 g/ha
Summary of the method: (§1)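 Sandy loam pots, seeds covered with soil, then surface-treated with WP or EC formulations at 600–800 l/ha water plus 0.2% wetting agent. Greenhouse, 3 weeks. Percent damage vs untreated controls.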

[2] = tested on: DIGSA; experiment: Pre-emergence herbicidal action against DIGSA; type: in vivo, Digitaria sanguinalis; details: Digitaria sanguinalis, 504 h; for pest or weed control at 20 g/ha: dosage 20 g/ha; for pest or weed control at 80 g/ha: dosage 80 g/ha
Summary of the method: as §1

[3] = tested on: MATIN; experiment: Post-emergence herbicidal action against MATIN; type: in vivo, Matricaria inodora; details: Tripleurospermum inodorum, 504 h, dosage 20 g/ha
Summary of the method: (§2)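 Herbicidal action is a visual percentage rating (0% = as untreated control, 100% = plants dead) made roughly 3 weeks after treatment. Plants were grown in sandy loam in the greenhouse and treated at the one-leaf stage, 2 to 3 weeks post-sowing. Treatment was a foliar spray of wettable-powder or emulsion-concentrate formulations at 600 to 800 l/ha water plus 0.2% wetting agent.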

[4] = tested on: LOLRI; experiment: Pre-emergence herbicidal action against LOLRI; type: in vivo, Lolium rigidum; details: Lolium rigidum, 504 h, 80 g/ha
Summary of the method: as §1

[5] = tested on: SETVI; experiment: Post-emergence herbicidal action against SETVI; type: in vivo, Setaria viridis; details: Setaria viridis, 504 h
Summary of the method: as §2

[6] = tested on: ABUTH; experiment: Pre-emergence herbicidal action against ABUTH; type: in vivo, Abutilon theophrasti; details: Abutilon theophrasti, 504 h; for pest or weed control at 80 g/ha: scored visually after 3 weeks vs untreated controls (100% = plants have died, 0% = like control plants)
Summary of the method: as §1

[7] = tested on: DIGSA; experiment: Post-emergence herbicidal action against DIGSA; type: in vivo, Digitaria sanguinalis; details: Digitaria sanguinalis, 504 h
Summary of the method: as §2

[8] = tested on: ECHCG; experiment: Post-emergence herbicidal action against ECHCG; type: in vivo, Echinochloa crus-galli; details: Echinochloa crus-galli, 504 h, dosage 20 g/ha
Summary of the method: as §2

[9] = tested on: SETVI; experiment: Pre-emergence herbicidal action against SETVI; type: in vivo, Setaria viridis; details: Setaria viridis, 504 h; for pest or weed control at 20 g/ha: dosage 20 g/ha; for pest or weed control at 80 g/ha: dosage 80 g/ha
Summary of the method: as §1

[10] = tested on: AMARE; experiment: Pre-emergence herbicidal action against AMARE; type: in vivo, Amaranthus retroflexus; details: Amaranthus retroflexus, 504 h, scored visually after 3 weeks vs untreated controls, 100% = plants have died, 0% = like control plants
Summary of the method: as §1

[11] = tested on: VIOTR; experiment: Pre-emergence herbicidal action against VIOTR; type: in vivo, Viola tricolor; details: Viola tricolor, 504 h; for pest or weed control at 20 g/ha: dosage 20 g/ha; for pest or weed control at 80 g/ha: dosage 80 g/ha
Summary of the method: as §1

[12] = tested on: ECHCG; experiment: Pre-emergence herbicidal action against ECHCG; type: in vivo, Echinochloa crus-galli; details: Echinochloa crus-galli, 504 h, 80 g/ha
Summary of the method: as §1

[13] = tested on: VERPE; experiment: Pre-emergence herbicidal action against VERPE; type: in vivo, Veronica persica; details: Veronica persica, 504 h, dosage 80 g/ha
Summary of the method: as §1

[14] = tested on: ABUTH; experiment: Post-emergence herbicidal action against ABUTH; type: in vivo, Abutilon theophrasti; details: Abutilon theophrasti, 504 h, dosage 20 g/ha, visual assessment about 3 weeks after treatment vs untreated controls
Summary of the method: as §2

[15] = tested on: VIOTR; experiment: Post-emergence herbicidal action against VIOTR; type: in vivo, Viola tricolor; details: Viola tricolor, 504 h
Summary of the method: as §2

[16] = tested on: ALOMY; experiment: Post-emergence herbicidal action against ALOMY; type: in vivo, Alopecurus myosuroides; details: Alopecurus myosuroides, 504 h, dosage 20 g/ha, visual assessment about 3 weeks after treatment vs untreated controls
Summary of the method: as §2

[17] = tested on: AMARE; experiment: Post-emergence herbicidal action against AMARE; type: in vivo, Amaranthus retroflexus; details: Amaranthus retroflexus, 504 h, 20 g/ha, visual assessment about 3 weeks after treatment, 100% = plants have died, 0% = like control plants
Summary of the method: as §2

[18] = tested on: POLCO; experiment: Pre-emergence herbicidal action against POLCO; type: in vivo, Polygonum convolvulus; details: Fallopia convolvulus, 504 h; for pest or weed control at 80 g/ha: dosage 80 g/ha
Summary of the method: as §1

[19] = tested on: MATIN; experiment: Pre-emergence herbicidal action against MATIN; type: in vivo, Matricaria inodora; details: Tripleurospermum inodorum, 504 h; for pest or weed control at 20 g/ha: dosage 20 g/ha; for pest or weed control at 80 g/ha: dosage 80 g/ha
Summary of the method: as §1

[20] = tested on: ALOMY; experiment: Pre-emergence herbicidal action against ALOMY; type: in vivo, Alopecurus myosuroides; details: Alopecurus myosuroides, 504 h, pre-emergence; for pest or weed control at 80 g/ha: scored visually after 3 weeks vs untreated controls (100% = plants have died, 0% = like control plants)
Summary of the method: as §1

[21] = tested on: AVEFA; experiment: Pre-emergence herbicidal action against AVEFA; type: in vivo, Avena fatua; details: Avena fatua, 504 h, pre-emergence
Summary of the method: as §1

[22] = tested on: VERPE; experiment: Post-emergence herbicidal action against VERPE; type: in vivo, Veronica persica; details: Veronica persica, 504 h, 20 g/ha
Summary of the method: as §2

[23] = 20 g/ha, scored visually after 3 weeks, 100% = plants have died, 0% = like control plants

| SMILES | pest or weed control at 20 g/ha [1] | pest or weed control at 80 g/ha [1] | pest or weed control at 20 g/ha [2] | pest or weed control at 80 g/ha [2] | pest or weed control at 20 g/ha [3] | pest or weed control at 80 g/ha [4] | pest or weed control at 80 g/ha [6] | pest or weed control at 20 g/ha [7] | pest or weed control at 20 g/ha [8] | pest or weed control at 20 g/ha [9] | pest or weed control at 80 g/ha [9] | pest or weed control at 20 g/ha [10] | pest or weed control at 80 g/ha [10] | pest or weed control at 20 g/ha [11] | pest or weed control at 80 g/ha [11] | pest or weed control at 80 g/ha [12] | pest or weed control at 80 g/ha [13] | pest or weed control at 20 g/ha [14] | pest or weed control at 5 g/ha [15] | pest or weed control at 20 g/ha [15] | further results |
| --- | --- | --- | --- | --- | --- | --- | --- | --- | --- | --- | --- | --- | --- | --- | --- | --- | --- | --- | --- | --- | --- |
| CCn1nnnc1NC(=O)c1ccc(I)c(C(=O)NC2CC2)c1Cl [Example 2-197] | 80% | 90% | 100% | 100% | 80% | 90% | 100% | 90% | 90% | 90% | 100% | 100% | 100% | 100% | 100% | 100% | 90% | 80% | 80% | 100% | pest or weed control at 5 g/ha ([5]; dosage 5 g/ha): 80%; pest or weed control at 20 g/ha ([5]; dosage 20 g/ha): 100%; pest or weed control at 20 g/ha [16]: 90%; pest or weed control at 20 g/ha [17]: 90%; pest or weed control at 80 g/ha [18]: 100%; pest or weed control at 20 g/ha [19]: 80%; pest or weed control at 80 g/ha [19]: 100%; pest or weed control at 80 g/ha [20]: 90%; pest or weed control at 80 g/ha [21]: 100%; pest or weed control at 20 g/ha [21, 23]: 80% |
| CCc1c(C(=O)Nc2nnnn2CC)ccc(C(F)F)c1C(=O)NC1CC1 [Example 2-279] | 80% | 90% | 90% | 100% | 80% | 80% | 100% | 90% | 90% | 80% | 100% | 100% | 100% | 100% | 100% | 100% | 90% | 80% | 80% | 90% | pest or weed control at 20 g/ha ([6]; dosage 20 g/ha, scored visually after 3 weeks vs untreated controls, 100% = plants have died, 0% = like control plants, read-out: Pre-emergence action against ABUTH (herbicidal activity in percent)): 80%; pest or weed control at 5 g/ha ([7]; 5 g/ha): 90%; pest or weed control at 20 g/ha [17]: 100%; pest or weed control at 20 g/ha ([18]; dosage 20 g/ha): 80%; pest or weed control at 80 g/ha [18]: 90%; pest or weed control at 20 g/ha [19]: 90%; pest or weed control at 80 g/ha [19]: 100%; pest or weed control at 80 g/ha [20]: 90%; pest or weed control at 20 g/ha [20, 23]: 80%; pest or weed control at 80 g/ha [21]: 100%; pest or weed control at 20 g/ha [22]: 90% |
